{"source": "patent US11279691B2", "about": "“Substituted pyridine and pyrazine compounds as PDE4 inhibitors” (Dart Neuroscience LLC, priority 2013, dated 2022)", "biological_target": "T1, PDE4D3 (Homo sapiens, UniProt Q08499)", "T1 construct": "GST", "T1 sequence (Q08499 1-673 isoform Q08499-2)": "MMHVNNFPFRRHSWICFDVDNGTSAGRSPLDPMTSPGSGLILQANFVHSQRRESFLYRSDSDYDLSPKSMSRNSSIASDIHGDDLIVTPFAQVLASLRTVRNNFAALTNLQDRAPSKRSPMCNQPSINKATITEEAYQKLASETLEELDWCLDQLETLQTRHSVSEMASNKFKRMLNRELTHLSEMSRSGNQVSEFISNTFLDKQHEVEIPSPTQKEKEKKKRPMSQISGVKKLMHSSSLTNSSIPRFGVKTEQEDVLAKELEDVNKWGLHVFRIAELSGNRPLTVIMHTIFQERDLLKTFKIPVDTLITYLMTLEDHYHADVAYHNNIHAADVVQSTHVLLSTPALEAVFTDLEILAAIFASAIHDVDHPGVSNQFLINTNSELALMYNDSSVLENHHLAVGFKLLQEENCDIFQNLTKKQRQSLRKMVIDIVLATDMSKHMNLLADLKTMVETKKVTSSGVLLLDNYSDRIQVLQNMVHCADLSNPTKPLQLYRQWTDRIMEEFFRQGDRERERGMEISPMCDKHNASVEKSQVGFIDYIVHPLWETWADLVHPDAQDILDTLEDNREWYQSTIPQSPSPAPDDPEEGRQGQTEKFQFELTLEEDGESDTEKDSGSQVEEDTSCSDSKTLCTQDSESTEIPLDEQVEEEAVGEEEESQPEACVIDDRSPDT", "type": "biochemical", "settings": "GST-tagged PDE4D3, 200 nM FAM-cAMP, 11-point dose-response; read-out: PD4d3 pEC50 (converted)"}
{"smiles": "N#CCc1ncn(Cc2cnc(OC(F)F)c(-c3cccc(Cl)c3)c2)n1", "note": "[Example 285, 2-(1-{[5-(3-chlorophenyl)-6-(difluoromethoxy)pyridin-3-yl]methyl}-1H-1,2,4-triazol-3-yl)acetonitrile]", "values": [{"measurement": "EC50", "value": "0.1 to 1", "unit": "µM"}]}
{"smiles": "CCOc1ncc(Cn2cnc(CO)n2)cc1-c1ccc(F)c(C)c1", "note": "[Example 331, (1-{[6-Ethoxy-5-(4-fluoro-3-methylphenyl)pyridin-3-yl]methyl}-1H-1,2,4-triazol-3-yl)methanol]", "values": [{"measurement": "EC50", "value": "0.1 to 1", "unit": "µM"}]}
{"smiles": "COc1ncc(Cc2cnc(N)nc2)cc1-c1ccc(Cl)c(F)c1", "note": "[Example 361, 5-{[5-(4-Chloro-3-fluorophenyl)-6-methoxypyridin-3-yl]methyl}pyrimidin-2-amine]", "values": [{"measurement": "EC50", "value": "0.1 to 1", "unit": "µM"}]}
{"smiles": "CCOc1ncc(Cn2cnc(CO)n2)cc1-c1ccnc(C(F)(F)F)c1", "note": "[Example 339, [1-({6-Ethoxy-5-[2-(trifluoromethyl)pyridin-4-yl]pyridin-3-yl}methyl)-1H-1,2,4-triazol-3-yl]methanol]", "values": [{"measurement": "EC50", "value": "1 to 10", "unit": "µM"}]}
{"smiles": "CCOc1ncc(Cc2cnc(N)nc2)cc1-c1ccc(F)cc1", "note": "[Example 350, 5-{[6-Ethoxy-5-(4-fluorophenyl)pyridin-3-yl]methyl}pyrimidin-2-amine]", "values": [{"measurement": "EC50", "value": "< 0.1", "unit": "µM"}]}
{"smiles": "CCOc1ncc(Cn2c(CO)cnc2C)cc1-c1cccc(Cl)c1", "note": "[Example 319, (1-{[5-(3-Chlorophenyl)-6-ethoxypyridin-3-yl]methyl}-2-methyl-1H-imidazol-5-yl)methanol]", "values": [{"measurement": "EC50", "value": "0.1 to 1", "unit": "µM"}]}
{"smiles": "CCOc1ncc(Cc2cnc(N)nc2)cc1-c1ccc(F)c(C)c1", "note": "[Example 352, 5-{[6-Ethoxy-5-(4-fluoro-3-methylphenyl)pyridin-3-yl]methyl}pyrimidin-2-amine]", "values": [{"measurement": "EC50", "value": "< 0.1", "unit": "µM"}]}
{"smiles": "CCOc1cccc(-c2cc(Cn3nnnc3C)cnc2OCC)c1", "note": "[Example 401, 2-Ethoxy-3-(3-ethoxyphenyl)-5-[(5-methyl-1H-1,2,3,4-tetrazol-1-yl)methyl]pyridine]", "values": [{"measurement": "EC50", "value": "0.1 to 1", "unit": "µM"}]}
{"smiles": "COc1ncc(Cn2ccc(C(N)=O)n2)cc1-c1cccc(Cl)c1", "note": "[Example 308, 1-{[5-(3-Chlorophenyl)-6-methoxypyridin-3-yl]methyl}-1H-pyrazole-3-carboxamide]", "values": [{"measurement": "EC50", "value": "0.1 to 1", "unit": "µM"}]}
{"smiles": "COc1ncc(Cn2cc(C(F)F)nc2C)cc1-c1ccnc(OC(F)F)c1", "note": "[Example 297, 2′-(Difluoromethoxy)-5-((4-(difluoromethyl)-2-methyl-1H-imidazol-1-yl)methyl)-2-methoxy-3,4′-bipyridine]", "values": [{"measurement": "EC50", "value": "0.1 to 1", "unit": "µM"}]}
{"smiles": "CCOc1ncc(Cn2nnnc2C)cc1-c1ccc(F)cc1", "note": "[Example 296, 2-Ethoxy-3-(4-fluorophenyl)-5-((5-methyl-1H-tetrazol-1-yl)methyl)pyridine]", "values": [{"measurement": "EC50", "value": "< 0.1", "unit": "µM"}]}
{"smiles": "COc1ncc(Cc2cnc(C)cn2)cc1-c1cccc(Cl)c1", "note": "[Example 377, 2-{[5-(3-Chlorophenyl)-6-methoxypyridin-3-yl]methyl}-5-methylpyrazine]", "values": [{"measurement": "EC50", "value": "< 0.1", "unit": "µM"}]}
{"smiles": "Nc1ncn(Cc2cnc(OC(F)F)c(-c3cccc(Cl)c3)c2)n1", "note": "[Example 218, 1-{[5-(3-Chlorophenyl)-6-(difluoromethoxy)pyridin-3-yl]methyl}-1H-1,2,4-triazol-3-amine]", "values": [{"measurement": "EC50", "value": "0.1 to 1", "unit": "µM"}]}
{"smiles": "COc1ncc(Cc2cnc(CC#N)nc2)cc1-c1ccc(F)c(F)c1", "note": "[Example 358, 2-(5-{[5-(3,4-Difluorophenyl)-6-methoxypyridin-3-yl]methyl}pyrimidin-2-yl)acetonitrile]", "values": [{"measurement": "EC50", "value": "< 0.1", "unit": "µM"}]}
{"smiles": "CCOc1ccc(Cc2cnc(OC)c(-c3cccc(Cl)c3)c2)nc1", "note": "[Example 286, 3-(3-Chlorophenyl)-5((5-ethoxypyridin-2-yl)methyl)-2-methoxy pyridine]", "values": [{"measurement": "EC50", "value": "> 10", "unit": "µM"}]}
{"smiles": "COc1ncc(Cc2cnnc(C)c2)cc1-c1cccc(Cl)c1", "note": "[Example 305, 5-{[5-(3-Chlorophenyl)-6-methoxypyridin-3-yl]methyl}-3-methylpyridazine]", "values": [{"measurement": "EC50", "value": "0.1 to 1", "unit": "µM"}]}
{"smiles": "COc1ncc(Cc2cnc(CC(N)=O)nc2)cc1-c1ccc(Cl)c(F)c1", "note": "[Example 366, 2-(5-{[5-(4-Chloro-3-fluorophenyl)-6-methoxypyridin-3-yl]methyl}pyrimidin-2-yl)acetamide]", "values": [{"measurement": "EC50", "value": "0.1 to 1", "unit": "µM"}]}
{"smiles": "COc1cc(-c2cc(Cc3cnc(N)nc3)cnc2OC)ccc1F", "note": "[Example 354, 5-{[5-(4-Fluoro-3-methoxyphenyl)-6-methoxypyridin-3-yl]methyl}pyrimidin-2-amine]", "values": [{"measurement": "EC50", "value": "0.1 to 1", "unit": "µM"}]}
{"smiles": "CCOc1ncc(Cn2nc(CO)cc2C)nc1-c1cccc(Cl)c1", "note": "[Example 323, (1-{[6-(3-Chlorophenyl)-5-ethoxypyrazin-2-yl]methyl}-5-methyl-1H-pyrazol-3-yl)methanol]", "values": [{"measurement": "EC50", "value": "1 to 10", "unit": "µM"}]}
{"smiles": "CCOC(=O)Cc1ccc(Cc2cnc(OC)c(-c3cccc(Cl)c3)c2)cc1", "note": "[Intermediate 50, Ethyl 2-(4-{[5-(3-chlorophenyl)-6-methoxypyridin-3-yl]methyl}phenyl)acetate]", "values": [{"measurement": "EC50", "value": "0.1 to 1", "unit": "µM"}]}
{"smiles": "CCOc1ncc(Cn2cnc(CO)n2)cc1-c1ccc(F)c(Cl)c1", "note": "[Example 337, (1-{[5-(3-Chloro-4-fluorophenyl)-6-ethoxypyridin-3-yl]methyl}-1H-1,2,4-triazol-3-yl)methanol]", "values": [{"measurement": "EC50", "value": "< 0.1", "unit": "µM"}]}
{"smiles": "COc1ncc(Cc2cnc(C(C)(C)C(N)=O)nc2)cc1-c1cccc(Cl)c1", "note": "[Example 367, 2-(5-{[5-(3-Chlorophenyl)-6-methoxypyridin-3-yl]methyl}pyrimidin-2-yl)-2-methylpropanamide]", "values": [{"measurement": "EC50", "value": "0.1 to 1", "unit": "µM"}]}
{"smiles": "CCOc1ncc(Cn2nnnc2C)cc1-c1ccc(F)c(F)c1", "note": "[Example 395, 3-(3,4-Difluorophenyl)-2-ethoxy-5-[(5-methyl-1H-1,2,3,4-tetrazol-1-yl)methyl]pyridine]", "values": [{"measurement": "EC50", "value": "< 0.1", "unit": "µM"}]}
{"smiles": "CCOc1ncc(Cn2cnc(C(N)=O)c2)cc1-c1ccnc(OC(F)F)c1", "note": "[Example 311, 1-({5-[2-(Difluoromethoxy)pyridin-4-yl]-6-ethoxypyridin-3-yl}methyl)-1H-imidazole-4-carboxamide]", "values": [{"measurement": "EC50", "value": "0.1 to 1", "unit": "µM"}]}
{"smiles": "CCOc1ncc(Cn2cnc(CO)n2)cc1-c1ccc(Cl)cc1", "note": "[Example 328, (1-{[5-(4-Chlorophenyl)-6-ethoxypyridin-3-yl]methyl}-1H-1,2,4-triazol-3-yl)methanol]", "values": [{"measurement": "EC50", "value": "0.1 to 1", "unit": "µM"}]}
{"smiles": "COc1ncc(Cc2ccc(CC(N)=O)cc2)cc1-c1ccc(Cl)c(F)c1", "note": "[Example 365, 2-(4-{[5-(4-Chloro-3-fluorophenyl)-6-methoxypyridin-3-yl]methyl}phenyl)acetamide]", "values": [{"measurement": "EC50", "value": "< 0.1", "unit": "µM"}]}
{"smiles": "COc1ncc(Cc2cnc(CO)cn2)cc1-c1cccc(Cl)c1", "note": "[Example 376, (5-{[5-(3-Chlorophenyl)-6-methoxypyridin-3-yl]methyl}pyrazin-2-yl)methanol]", "values": [{"measurement": "EC50", "value": "< 0.1", "unit": "µM"}]}
{"smiles": "CCOc1ncc(Cn2cc(CO)cn2)cc1-c1cccc(Cl)c1", "note": "[Example 273, (1-{[5-(3-Chlorophenyl)-6-ethoxypyridin-3-yl]methyl}-1H-pyrazol-4-yl)methanol]", "values": [{"measurement": "EC50", "value": "0.1 to 1", "unit": "µM"}]}
{"smiles": "CCOc1ncc(Cn2cnc(CO)n2)cc1-c1cccc(F)c1", "note": "[Example 341, (1-{[6-Ethoxy-5-(3-fluorophenyl)pyridin-3-yl]methyl}-1H-1,2,4-triazol-3-yl)methanol]", "values": [{"measurement": "EC50", "value": "0.1 to 1", "unit": "µM"}]}
{"smiles": "COc1ncc(Cc2cnc(N)cn2)cc1-c1cccc(Cl)c1", "note": "[Example 287, 5-((5-(3-Chlorophenyl)-6-methoxypyridin-3-yl)methyl)pyrazin-2-amine]", "values": [{"measurement": "EC50", "value": "< 0.1", "unit": "µM"}]}
{"smiles": "CCOc1ncc(Cn2cnc(CO)n2)cc1-c1cccc(C(F)(F)F)c1", "note": "[Example 332, [1-({6-Ethoxy-5-[3-(trifluoromethyl)phenyl]pyridin-3-yl}methyl)-1H-1,2,4-triazol-3-yl]methanol]", "values": [{"measurement": "EC50", "value": "1 to 10", "unit": "µM"}]}
{"smiles": "CCOc1ncc(Cn2cnc(CO)n2)cc1-c1cccc(N(C)C)c1", "note": "[Example 335, [1-({5-[3-(Dimethylamino)phenyl]-6-ethoxypyridin-3-yl}methyl)-1H-1,2,4-triazol-3-yl]methanol]", "values": [{"measurement": "EC50", "value": "1 to 10", "unit": "µM"}]}
{"smiles": "COc1ncc(Cn2ccc(C(N)=O)n2)cc1-c1ccnc(OC(F)F)c1", "note": "[Example 309, 1-({5-[2-(Difluoromethoxy)pyridin-4-yl]-6-methoxypyridin-3-yl}methyl)-1H-pyrazole-3-carboxamide]", "values": [{"measurement": "EC50", "value": "< 0.1", "unit": "µM"}]}
{"smiles": "COc1ncc(Cc2cnc(OC(F)F)nc2)cc1-c1cccc(Cl)c1", "note": "[Example 304, 5-((5-(3-Chlorophenyl)-6-methoxypyridin-3-yl)methyl)-2-(difluoromethoxy)pyrimidine]", "values": [{"measurement": "EC50", "value": "0.1 to 1", "unit": "µM"}]}
{"smiles": "CCOc1ncc(Cn2cnc(C(N)=O)c2)cc1-c1cccc(Cl)c1", "note": "[Example 310, 1-{[5-(3-Chlorophenyl)-6-ethoxypyridin-3-yl]methyl}-1H-imidazole-4-carboxamide]", "values": [{"measurement": "EC50", "value": "0.1 to 1", "unit": "µM"}]}
{"smiles": "COc1ncc(Cc2cnc(N3CCOCC3)nc2)cc1-c1cccc(Cl)c1", "note": "[Example 292]", "values": [{"measurement": "EC50", "value": "1 to 10", "unit": "µM"}]}
{"smiles": "COc1ncc(Cc2cnc(NCCO)nc2)cc1-c1cccc(Cl)c1", "note": "[Example 391, 2-[(5-{[5-(3-Chlorophenyl)-6-methoxypyridin-3-yl]methyl}pyrimidin-2-yl)amino]ethan-1-ol]", "values": [{"measurement": "EC50", "value": "< 0.1", "unit": "µM"}]}
{"smiles": "COc1ncc(Cc2cnc(NCCO)nc2)cc1-c1ccc(F)cc1", "note": "[Example 283, 2-[(5-{[5-(4-Fluorophenyl)-6-methoxypyridin-3-yl]methyl}pyrimidin-2-yl)amino]ethan-1-ol]", "values": [{"measurement": "EC50", "value": "0.1 to 1", "unit": "µM"}]}
{"smiles": "CCOc1ncc(Cn2nnnc2C)cc1-c1ccnc(OC(F)F)c1", "note": "[Example 396, 3-[2-(Difluoromethoxy)pyridin-4-yl]-2-ethoxy-5-[(5-methyl-1H-1,2,3,4-tetrazol-1-yl)methyl]pyridine]", "values": [{"measurement": "EC50", "value": "< 0.1", "unit": "µM"}]}
{"smiles": "COc1ncc(Cn2nnc(CO)n2)cc1-c1ccc(F)cc1", "note": "[Example 381, (2-{[5-(4-Fluorophenyl)-6-methoxypyridin-3-yl]methyl}-2H-1,2,3,4-tetrazol-5-yl)methanol]", "values": [{"measurement": "EC50", "value": "0.1 to 1", "unit": "µM"}]}
{"smiles": "CCOc1cccc(-c2cc(Cn3cnc(CO)n3)cnc2OCC)c1", "note": "[Example 334, (1-{[6-Ethoxy-5-(3-ethoxyphenyl)pyridin-3-yl]methyl}-1H-1,2,4-triazol-3-yl)methanol]", "values": [{"measurement": "EC50", "value": "0.1 to 1", "unit": "µM"}]}
{"smiles": "CCOc1ncc(Cc2cnc(N)nc2)nc1-c1ccc(F)c(F)c1", "note": "[Example 293, 5-((6-(3,4-difluorophenyl)-5-ethoxypyrazin-2-yl)methyl)pyrimidin-2-amine]", "values": [{"measurement": "EC50", "value": "< 0.1", "unit": "µM"}]}
{"smiles": "COc1cc(-c2cc(Cn3cc(CO)nc3C)cnc2OC)ccc1F", "note": "[Example 343, (1-{[5-(4-Fluoro-3-methoxyphenyl)-6-methoxypyridin-3-yl]methyl}-2-methyl-1H-imidazol-4-yl)methanol]", "values": [{"measurement": "EC50", "value": "1 to 10", "unit": "µM"}]}
